This is an account of results in patent US9938262B2, “Benzamides” (Merck Patent GmbH, priority 2011, dated 2018).

Molecules are shown by their SMILES.

The target of this experiment is T1, FSHR (Homo sapiens, UniProt P23945).
T1 construct: expressed in transfected cells; host or cells: CHO (Cho-FSHR-LUC-1-1-43)
T1 sequence (P23945 18-695): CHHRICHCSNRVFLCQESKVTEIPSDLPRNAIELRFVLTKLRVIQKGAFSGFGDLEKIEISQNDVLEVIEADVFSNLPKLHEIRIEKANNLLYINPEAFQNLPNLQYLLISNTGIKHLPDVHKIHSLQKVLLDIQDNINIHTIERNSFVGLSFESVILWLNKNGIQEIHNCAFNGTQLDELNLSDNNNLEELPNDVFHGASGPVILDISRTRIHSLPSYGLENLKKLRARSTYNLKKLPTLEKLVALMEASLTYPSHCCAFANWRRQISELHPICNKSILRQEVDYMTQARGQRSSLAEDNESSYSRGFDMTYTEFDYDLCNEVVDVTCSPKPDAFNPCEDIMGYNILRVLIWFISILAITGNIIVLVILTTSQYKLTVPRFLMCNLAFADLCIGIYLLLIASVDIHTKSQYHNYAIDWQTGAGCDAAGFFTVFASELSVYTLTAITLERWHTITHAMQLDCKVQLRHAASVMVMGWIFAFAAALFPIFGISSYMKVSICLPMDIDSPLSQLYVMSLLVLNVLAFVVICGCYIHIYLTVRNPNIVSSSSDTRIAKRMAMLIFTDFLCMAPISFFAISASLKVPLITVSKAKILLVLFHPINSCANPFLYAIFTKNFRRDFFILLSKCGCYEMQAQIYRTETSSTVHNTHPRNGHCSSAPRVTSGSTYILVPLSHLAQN
T1 sequence (P01215 25-116 partner): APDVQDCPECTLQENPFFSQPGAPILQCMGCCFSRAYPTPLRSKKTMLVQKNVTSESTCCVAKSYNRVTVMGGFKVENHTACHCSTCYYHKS
T1 sequence (P01225 19-129 partner): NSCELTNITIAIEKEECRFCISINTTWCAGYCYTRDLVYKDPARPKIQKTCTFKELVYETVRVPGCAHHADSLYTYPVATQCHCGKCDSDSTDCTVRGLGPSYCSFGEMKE
In words: EC50 of cyclic AMP production in CHO FSHR cells + EC20 FSH (Assay A). The class given is cell-based. The note with it: CHO FSHR cells + EC20 FSH; Table 2; read-out: Assay A EC50 of cyclic AMP production. Summed up:
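cAMP HTRF ratio (665/620 nm) read after 1 h, 37 °C exposure of CHO-FSHR cells to compound in presence of EC20 FSH ([…]) and IBMX 200 μM. Responses given relative to FSH standard maximum; EC50 derived.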
As for `Cc1ccccc1N1CCN(c2ccc(C(=O)NC3CCN(C4CCCC4)C3)cc2NC(=O)c2ccco2)CC1` (stereo not drawn) [Compound 345], the EC50 (in general, the concentration at which the effect is half-maximal) fell in the range of 1000 to 10000 nM.

On to `Cc1ccccc1N1CCN(c2ccc(C(=O)NC(C)c3ccccc3)cc2NC(=O)c2coc(C3CC3)n2)CC1` (stereo not drawn) [Compound 346], for which the EC50 lay within 100 to 1000 nM.

For the compound `Cc1ccccc1N1CCN(c2ccc(C(=O)NCCN3C(=O)CCC3=O)cc2NC(=O)c2coc(C3CC3)n2)CC1` [Compound 347], the EC50 was greater than 10000 nM.

For `Cc1ccccc1N1CCN(c2ccc(C(=O)NCc3cccc(CN(C)C)c3)cc2NC(=O)c2coc(C3CC3)n2)CC1` [Compound 348], the EC50 was 100 to 1000 nM.

Take `Cc1ccccc1N1CCN(c2ccc(C(=O)NCCN3CCOC3=O)cc2NC(=O)c2coc(C3CC3)n2)CC1` [Compound 350]: the EC50 is 100 to 1000 nM.

In the case of `Cc1ccccc1N1CCN(c2ccc(C(=O)NCCCC(=O)O)cc2NC(=O)c2coc(C3CC3)n2)CC1` [Compound 351], the 50% effective concentration (EC50) fell in the range of 100 to 1000 nM.

Take `Cc1ccccc1N1CCN(c2ccc(C(=O)NCCCN3C(=O)[C@@H]4C=C[C@H]3C4)cc2NC(=O)c2coc(C3CC3)n2)CC1` [Compound 352]: the EC50 lay within 100 to 1000 nM.

In the case of `Cc1ccccc1N1CCN(c2ccc(C(=O)NCCCN3C(=O)[C@@H]4CC[C@H]3C4)cc2NC(=O)c2coc(C3CC3)n2)CC1` [Compound 353], the EC50 lay within 100 to 1000 nM.

On to `Cc1ccccc1N1CCN(c2ccc(C(=O)NCCCN3C(=O)CCC3(C)C)cc2NC(=O)c2coc(C3CC3)n2)CC1` [Compound 354], for which the 50% effective concentration (EC50) lay in the range of 100 to 1000 nM.

Regarding `CC(=O)NCC(C)(C)CNC(=O)c1ccc(N2CCN(c3ccccc3C)CC2)c(NC(=O)c2coc(C3CC3)n2)c1` [Compound 355], the EC50 fell in the range of 100 to 1000 nM.

`Cc1ccccc1N1CCN(c2ccc(C(=O)NCC(C)(C)CN3CCCC3=O)cc2NC(=O)c2coc(C3CC3)n2)CC1` [Compound 356]: the EC50 fell in the range of 100 to 1000 nM.

On to `Cc1ccccc1N1CCN(c2ccc(C(=O)NCCCN3C(=O)OC[C@H]3CO)cc2NC(=O)c2coc(C3CC3)n2)CC1` [Compound 357], for which the EC50 was in the range of 100 to 1000 nM.

Turning to `Cc1ccccc1N1CCN(c2ccc(C(=O)NCCCN3C(=O)OCC3(C)C)cc2NC(=O)c2coc(C3CC3)n2)CC1` [Compound 358], the EC50 is 100 to 1000 nM.

Turning to `Cc1ccccc1N1CCN(c2ccc(C(=O)NCC3(C(N)=O)CC3)cc2NC(=O)c2coc(C3CC3)n2)CC1` [Compound 359], the half-maximal effective concentration (EC50) is 100 to 1000 nM.

With `CC(=O)N(C)CCCNC(=O)c1ccc(N2CCN(c3ccccc3C)CC2)c(NC(=O)c2coc(C3CC3)n2)c1` [Compound 360], the EC50 was less than 100 nM.

Regarding `Cc1ccccc1N1CCN(c2ccc(C(=O)NCCCC(=O)CN(c3ccccc3)c3ccccc3)cc2NC(=O)c2coc(C3CC3)n2)CC1` [Compound 361], the EC50 lay within 1000 to 10000 nM.

For `Cc1ccccc1N1CCN(c2ccc(C(=O)NCCCN3CCC(F)(F)C3)cc2NC(=O)c2coc(C3CC3)n2)CC1` [Compound 362], the half-maximal effective concentration (EC50) lay within 100 to 1000 nM.

Take `Cc1ccccc1N1CCN(c2ccc(C(=O)NCCCC(=O)NC3CCC3)cc2NC(=O)c2coc(C3CC3)n2)CC1` [Compound 363]: the EC50 was in the range of 100 to 1000 nM.

Take `Cc1ccccc1N1CCN(c2ccc(C(=O)NC(C)CCN3CCCC3=O)cc2NC(=O)c2coc(C3CC3)n2)CC1` (stereo not drawn) [Compound 364]: the half-maximal effective concentration (EC50) was in the range of 100 to 1000 nM.

Consider `Cc1ccccc1N1CCN(c2ccc(C(=O)NCCCN3CC(C)OC3=O)cc2NC(=O)c2coc(C3CC3)n2)CC1` (stereo not drawn) [Compound 366], for which the half-maximal effective concentration (EC50) lay within 100 to 1000 nM.

As for `CCNC(=O)N(C)CCCNC(=O)c1ccc(N2CCN(c3ccccc3C)CC2)c(NC(=O)c2coc(C3CC3)n2)c1` [Compound 367], the EC50 lay in the range of 100 to 1000 nM.

In the case of `CC(=O)NCCCNC(=O)c1ccc(N2CCN(c3ccccc3C)CC2)c(NC(=O)c2coc(C3CC3)n2)c1` [Compound 368], the EC50 is 100 to 1000 nM.

`Cc1ccc(C(=O)Nc2cc(C(=O)NCCCN3C(=O)OCC3(C)C)ccc2N2CCN(c3ccccc3C)CC2)o1` [Compound 369]: the EC50 fell in the range of 1000 to 10000 nM.

For `Cc1ccc(C(=O)Nc2cc(C(=O)NCCCN3CC(C)OC3=O)ccc2N2CCN(c3ccccc3C)CC2)o1` (stereo not drawn) [Compound 370], the EC50 was in the range of 1000 to 10000 nM.

Take `Cc1ccccc1N1CCN(c2ccc(C(=O)NCCNC3CS(=O)(=O)CC3O)cc2NC(=O)c2ccco2)CC1` (stereo not drawn) [Compound 371]: the EC50 was 100 to 1000 nM.

On to `Cc1ccccc1N1CCN(c2ccc(C(=O)NCCCc3ccccc3O)cc2NC(=O)c2ccco2)CC1` [Compound 372], for which the EC50 lay within 100 to 1000 nM.

With `Cc1ccccc1N1CCN(c2ccc(C(=O)NCCCc3ccccc3Cl)cc2NC(=O)c2ccco2)CC1` [Compound 373], the concentration giving a half-maximal response (EC50) lay within 1000 to 10000 nM.

Take `Cc1ccccc1N1CCN(c2ccc(C(=O)NCCCn3nccc3C3CC3)cc2NC(=O)c2ccco2)CC1` [Compound 374]: the EC50 lay in the range of 100 to 1000 nM.

As to `Cc1ccccc1N1CCN(c2ccc(C(=O)NCCCC3CCCC3)cc2NC(=O)c2ccco2)CC1` [Compound 375], the EC50 lay within 100 to 1000 nM.

Consider `Cc1ccccc1N1CCN(c2ccc(C(=O)NCC(=O)NC3CCS(=O)(=O)C3)cc2NC(=O)c2ccco2)CC1` (stereo not drawn) [Compound 376], for which the concentration for a half-maximal effect (EC50) lay within 100 to 1000 nM.

In the case of `Cc1ccccc1N1CCN(c2ccc(C(=O)NCCCC3CCS(=O)(=O)C3)cc2NC(=O)c2ccco2)CC1` (stereo not drawn) [Compound 377], the half-maximal effective concentration (EC50) was in the range of 100 to 1000 nM.

For `Cc1ccccc1N1CCN(c2ccc(C(=O)NCCCN3C(=O)C(=O)N(C)C3=O)cc2NC(=O)c2ccco2)CC1` [Compound 379], the EC50 was in the range of 100 to 1000 nM.

Consider `Cc1ccccc1N1CCN(c2ccc(C(=O)NCC3C[C@@H]4CC[C@H]3C4)cc2NC(=O)c2ccco2)CC1` (stereo partly drawn) [Compound 380], for which the EC50 is 100 to 1000 nM.

`Cc1ccccc1N1CCN(c2ccc(C(=O)NCc3cccc(-c4nccs4)c3)cc2NC(=O)c2coc(C3CC3)n2)CC1` [Compound 382]: the EC50 was in the range of 100 to 1000 nM.

Turning to `Cc1ccccc1N1CCN(c2ccc(C(=O)NCCCN3CCCC3=O)cc2NC(=O)c2cnc(C3CC3)s2)CC1` [Compound 383], the concentration giving a half-maximal response (EC50) is 100 to 1000 nM.

Consider `Cc1ccccc1N1CCN(c2ccc(C(=O)NCCCN3C(=O)CCC3=O)cc2NC(=O)c2ccc(Br)o2)CC1` [Compound 384], for which the EC50 lay in the range of 100 to 1000 nM.

As to `Cc1ccccc1N1CCN(c2ccc(C(=O)NCCCN3CCOC3=O)cc2NC(=O)c2ccc(Br)o2)CC1` [Compound 385], the EC50 fell in the range of 100 to 1000 nM.

Turning to `Cc1ccccc1N1CCN(c2ccc(C(=O)NCCCN3CCCC3=O)cc2NC(=O)c2cnc(C3CC3)o2)CC1` [Compound 386], the EC50 lay in the range of 100 to 1000 nM.

For the compound `Cc1ccccc1N1CCN(c2ccc(C(=O)NCCNC3CCS(=O)(=O)C3)cc2NC(=O)c2ccco2)CC1` (stereo not drawn) [Compound 387], the EC50 was in the range of 100 to 1000 nM.

For the compound `Cc1ccccc1N1CCN(c2ccc(C(=O)NCCCc3ccc(O)cc3)cc2NC(=O)c2ccco2)CC1` [Compound 388], the EC50 was less than 100 nM.

`Cc1ccccc1N1CCN(c2ccc(C(=O)NCCNC3CCCC3)cc2NC(=O)c2ccco2)CC1` [Compound 389]: the EC50 is greater than 10000 nM.

For `Cc1ccccc1N1CCN(c2ccc(C(=O)NCCCc3nc(C)c(C)s3)cc2NC(=O)c2coc(C3CC3)n2)CC1` [Compound 390], the EC50 is 100 to 1000 nM.

For `Cc1ccccc1N1CCN(c2ccc(C(=O)NCCCc3scnc3C)cc2NC(=O)c2coc(C3CC3)n2)CC1` [Compound 391], the concentration giving a half-maximal response (EC50) fell in the range of 100 to 1000 nM.

On to `Cc1ccccc1N1CCN(c2ccc(C(=O)NCCCc3nccs3)cc2NC(=O)c2coc(C3CC3)n2)CC1` [Compound 393], for which the concentration giving a half-maximal response (EC50) lay within 100 to 1000 nM.

As for `Cc1csc(CCCNC(=O)c2ccc(N3CCN(c4ccccc4C)CC3)c(NC(=O)c3coc(C4CC4)n3)c2)n1` [Compound 395], the EC50 was in the range of 100 to 1000 nM.

Turning to `Cc1ccccc1N1CCN(c2ccc(C(=O)NCCCn3cncn3)cc2NC(=O)c2coc(C3CC3)n2)CC1` [Compound 396], the EC50 was 100 to 1000 nM.

Consider `Cc1ccccc1N1CCN(c2ccc(C(=O)NCCc3ccccc3C#N)cc2NC(=O)c2coc(C3CC3)n2)CC1` [Compound 397], for which the EC50 was 100 to 1000 nM.

`Cc1ccc(C(=O)Nc2cc(C(=O)NC(C)CCN3CCCC3=O)ccc2N2CCN(c3ccccc3C)CC2)o1` (stereo not drawn) [Compound 398]: the EC50 was 100 to 1000 nM.

With `O=C(NCCCN1CCCC1=O)c1ccc(N2CC=C(c3ccccc3)CC2)c(NC(=O)c2coc(C3CC3)n2)c1` [Compound 399], the half-maximal effective concentration (EC50) lay in the range of 100 to 1000 nM.

With `CC(=O)NC1(c2ccccc2)CCN(c2ccc(C(=O)NCCCN3CCCC3=O)cc2NC(=O)c2coc(C3CC3)n2)CC1` [Compound 400], the concentration for a half-maximal effect (EC50) is greater than 10000 nM.

As to `NC1(c2ccccc2)CCN(c2ccc(C(=O)NCCCN3CCCC3=O)cc2NC(=O)c2coc(C3CC3)n2)CC1` [Compound 401], the EC50 was greater than 10000 nM.

Regarding `O=C(NCCCN1CCCC1=O)c1ccc(N2CCN(c3ccccc3F)CC2)c(NC(=O)c2coc(C3CC3)n2)c1` [Compound 402], the EC50 lay within 100 to 1000 nM.

For `O=C(NCCCN1CCCC1=O)c1ccc(N2CCN(c3ccccc3OC(F)(F)F)CC2)c(NC(=O)c2coc(C3CC3)n2)c1` [Compound 403], the EC50 fell in the range of 1000 to 10000 nM.

In the case of `Cc1ccc(C(=O)Nc2cc(C(=O)NCCCN3CCCC3=O)ccc2N2CCN(c3ccccc3OC(F)(F)F)CC2)o1` [Compound 404], the 50% effective concentration (EC50) lay in the range of 1000 to 10000 nM.

As for `Cc1ccccc1N(C)C1CCN(c2ccc(C(=O)NCCCN3CCCC3=O)cc2NC(=O)c2coc(C3CC3)n2)CC1` [Compound 405], the EC50 is 100 to 1000 nM.

As to `Cc1ccccc1N1CCN(c2ccc(C(=O)NCCCN3CCOCC3)cc2NC(=O)c2coc(C3CC3)n2)CC1` [Compound 406], the 50% effective concentration (EC50) was 100 to 1000 nM.

Consider `CN(c1ccccc1)C1CCN(c2ccc(C(=O)NCCCN3CCCC3=O)cc2NC(=O)c2coc(C3CC3)n2)CC1` [Compound 407], for which the EC50 was greater than 10000 nM.

On to `Cc1ccccc1N1CCN(c2ccc(C(=O)NCCc3cccc(CN(C)C)c3)cc2NC(=O)c2coc(C3CC3)n2)CC1` [Compound 408], for which the EC50 was 100 to 1000 nM.

For `Cc1ccccc1N1CCN(c2ccc(C(=O)Nc3ccc(C(C)(C)C#N)cc3)cc2NC(=O)c2coc(C3CC3)n2)CC1` [Compound 409], the EC50 is greater than 10000 nM.

Turning to `Cc1ccccc1N1CCN(c2ccc(C(=O)NCCc3ccccc3C(N)=O)cc2NC(=O)c2coc(C3CC3)n2)CC1` [Compound 411], the EC50 is 100 to 1000 nM.
